The experiment deals with T1, human mAChR M4 (Homo sapiens, UniProt P08173).
T1 construct: expressed in transfected cells; host or cells: CHO-K1 (American Type Culture Collection), stably expressing hM4 and Gqi5
T1 sequence (P08173 1-479): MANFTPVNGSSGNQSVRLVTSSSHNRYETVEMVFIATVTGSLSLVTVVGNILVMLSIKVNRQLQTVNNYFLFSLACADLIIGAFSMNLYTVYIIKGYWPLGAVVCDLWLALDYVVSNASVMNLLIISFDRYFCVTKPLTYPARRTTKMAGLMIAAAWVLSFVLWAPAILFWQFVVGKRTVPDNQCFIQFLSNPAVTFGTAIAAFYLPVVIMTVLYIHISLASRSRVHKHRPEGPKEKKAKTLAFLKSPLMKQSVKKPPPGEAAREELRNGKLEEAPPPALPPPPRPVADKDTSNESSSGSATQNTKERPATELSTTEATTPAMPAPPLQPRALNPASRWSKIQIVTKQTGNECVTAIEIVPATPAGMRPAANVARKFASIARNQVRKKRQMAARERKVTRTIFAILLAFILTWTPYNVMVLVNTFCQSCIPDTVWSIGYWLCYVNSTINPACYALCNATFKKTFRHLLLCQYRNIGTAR
The experiment in a line: mAChR M4 cell-based functional assay: calcium mobilization (Fluo-4, FDSS), potentiation of EC20 acetylcholine response in hM4-Gqi5 CHO-K1 cells. The following applies: human M4; for Emax at 30 µM: CHO-K1, % ACh maximum at 30 μM; for EC50: potentiation of EC20 acetylcholine response, calcium mobilization. Summed up:
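Readout is the fluorescence-ratio rise at 1 Hz on FDSS, with PAM activity taken as concentration-dependent enhancement of the EC20 acetylcholine response, fitted four-parameter for EC50/Emax. hM4-Gqi5 CHO-K1 cells carried Fluo-4 AM dye; test compounds (11 points, 1:3) preceded EC20 acetylcholine additions at 144 s and 230 s.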
On the technique in general: Calcium flux is commonly read through the fluorescence of an indicator in the cells.

Data on 24 molecules can be found in patent publication US20250101041A1, “POSITIVE ALLOSTERIC MODULATORS OF THE MUSCARINIC ACETYLCHOLINE RECEPTOR M4” (Vanderbilt University, priority 2022, published 2025).

The Emax is the greatest response seen or fitted, relative to the assay's reference. Usually EC50 stands for the concentration at which the effect is half-maximal. In the case of `Cc1cc2nccc(=O)n2nc1N1CCc2ncc(Nc3cccnc3F)cc2C1` [Compound 2-78, 7-(3-((2-fluoropyridin-3-yl)amino)-7,8-dihydro-1,6-naphthyridin-6(5H)-yl)-8-methyl-4H-pyrimido[1,2-b]pyridazin-4-one], the Emax at 30 µM was 103% and the EC50 came out at 102 nM.

Turning to `COCc1cc(=O)n2nc(N3CCc4ncc(-c5cnccc5C)cc4C3)c(C)cc2n1` [Compound 1-359, 2-(methoxymethyl)-8-methyl-7-(3-(4-methylpyridin-3-yl)-7,8-dihydro-1,6-naphthyridin-6(5H)-yl)-4H-pyrimido[1,2-b] pyridazin-4-one], the Emax at 30 µM came to 82% and the EC50 amounted to 136 nM.

For the molecule `Cc1cc(=O)n2nc(N3CCc4ncc(-c5cncc(Cl)c5)cc4C3)c(C)c(C)c2n1` [Compound 1-123, 7-(3-(5-chloropyridin-3-yl)-7,8-dihydro-1,6-naphthyridin-6(5H)-yl)-2,8,9-trimethyl-4H-pyrimido[1,2-b]pyridazin-4-one], the Emax at 30 µM stood at 89% and the EC50 was 858 nM.

For `Cc1cc(F)c(F)c(-c2cnc3c(c2)CN(c2nn4c(=O)cc(C(F)F)nc4c(C)c2C)CC3)c1` [Compound 1-284, 7-(3-(2,3-difluoro-5-methylphenyl)-7,8-dihydro-1,6-naphthyridin-6(5H)-yl)-2-(difluoromethyl)-8,9-dimethyl-4H-pyrimido[1,2-b] pyridazin-4-one], the Emax at 30 µM came to 77% and the EC50 was 1100 nM.

Take `Cc1c(N2CCc3ncc(C4CCOCC4)cc3C2)nn2c(=O)ccnc2c1C` [Compound 1-429, 8,9-Dimethyl-7-(3-(tetrahydro-2H-pyran-4-yl)-7,8-dihydro-1,6-naphthyridin-6(5H)-yl)-4H-pyrimido[1,2-b]pyridazin-4-one]: the Emax at 30 µM was 91% and the EC50 stood at 901 nM.

On to `Cc1cc2nccc(=O)n2nc1N1CCc2ncc(C(F)(F)F)cc2C1` [Compound 1-1, 8-methyl-7-(3-(trifluoromethyl)-7,8-dihydro-1,6-naphthyridin-6(5H)-yl)-4H-pyrimido[1,2-b]pyridazin-4-one], for which the Emax at 30 µM came out at 81% and the EC50 came to 300 nM.

In the case of `Cc1c(N2CCc3ncc(-c4ccc(C5CC5)nc4)cc3C2)nn2c(=O)ccnc2c1C` [Compound 1-91, 7-(3-(6-Cyclopropylpyridin-3-yl)-7,8-dihydro-1,6-naphthyridin-6(5H)-yl)-8,9-dimethyl-4H-pyrimido[1,2-b]pyridazin-4-one], the Emax at 30 µM came out at 83% and the EC50 is 127 nM.

For the molecule `Cc1cc(=O)n2nc(N3CCc4ncc(-c5cnn(C6CC6)c5)cc4C3)c(C)cc2n1` [Compound 1-32, 7-(3-(1-cyclopropyl-1H-pyrazol-4-yl)-7,8-dihydro-1,6-naphthyridin-6(5H)-yl)-2,8-dimethyl-4H-pyrimido[1,2-b]pyridazin-4-one], the Emax at 30 µM was 76% and the EC50 stood at 405 nM.

As to `COc1cc(F)ccc1Nc1cnc2c(c1)CN(c1nn3c(=O)ccnc3cc1C)CC2` [Compound 2-74, 7-(3-((4-fluoro-2-methoxyphenyl)amino)-7,8-dihydro-1,6-naphthyridin-6(5H)-yl)-8-methyl-4H-pyrimido[1,2-b]pyridazin-4-one], the Emax at 30 µM came to 62% and the EC50 stood at 398 nM.

As for `Cc1cc2nc(C)c(C)c(=O)n2nc1N1CCc2ncc(Nc3ccncc3F)cc2C1` [Compound 2-158, 7-(3-((3-fluoropyridin-4-yl)amino)-7,8-dihydro-1,6-naphthyridin-6(5H)-yl)-2,3,8-trimethyl-4H-pyrimido[1,2-b]pyridazin-4-one], the Emax at 30 µM is 91% and the EC50 was determined as 1 nM.

Turning to `Cc1c(N2CCc3ncc(-c4cnccn4)cc3C2)nn2c(=O)cc(C(F)F)nc2c1C` [Compound 1-116, 2-(difluoromethyl)-8,9-dimethyl-7-(3-(pyrazin-2-yl)-7,8-dihydro-1,6-naphthyridin-6(5H)-yl)-4H-pyrimido[1,2-b]pyridazin-4-one], the Emax at 30 µM is 93% and the EC50 worked out at 19 nM.

Take `Cc1ccc(-c2cnc3c(c2)CN(c2nn4c(=O)c(Br)cnc4c(C)c2C)CC3)cn1` [Compound 1-88, 3-bromo-8,9-dimethyl-7-(3-(6-methylpyridin-3-yl)-7,8-dihydro-1,6-naphthyridin-6(5H)-yl)-4H-pyrimido[1,2-b]pyridazin-4-one]: the Emax at 30 µM is 83% and the EC50 worked out at 97 nM.

As to `Cc1cc2nccc(=O)n2nc1N1CCc2ncc(-c3ccc(F)c(Cl)c3)cc2C1` [Compound 1-59, 7-(3-(3-chloro-4-fluorophenyl)-7,8-dihydro-1,6-naphthyridin-6(5H)-yl)-8-methyl-4H-pyrimido[1,2-b]pyridazin-4-one], the Emax at 30 µM is 99% and the EC50 amounted to 244 nM.

Take `COCc1cc(=O)n2nc(N3CCc4ncc(-c5cc(F)ccn5)cc4C3)c(C)cc2n1` [Compound 1-383, 7-(3-(4-fluoropyridin-2-yl)-7,8-dihydro-1,6-naphthyridin-6(5H)-yl)-2-(methoxymethyl)-8-methyl-4H-pyrimido[1,2-b] pyridazin-4-one]: the Emax at 30 µM was determined as 83% and the EC50 was 647 nM.

In the case of `Cc1cc2nccc(=O)n2nc1N1CCc2ncc(NCC3CCCOC3)cc2C1` (stereo not drawn) [Compound 2-86, 8-methyl-7-(3-(((tetrahydro-2H-pyran-3-yl)methyl)amino)-7,8-dihydro-1,6-naphthyridin-6(5H)-yl)-4H-pyrimido[1,2-b]pyridazin-4-one], the Emax at 30 µM amounted to 87% and the EC50 is 1830 nM.

Turning to `Cc1cc(=O)n2nc(N3CCc4ncc(Nc5cccnc5F)cc4C3)c(C)cc2n1` [Compound 2-19, 7-(3-((2-fluoropyridin-3-yl)amino)-7,8-dihydro-1,6-naphthyridin-6(5H)-yl)-2,8-dimethyl-4H-pyrimido[1,2-b]pyridazin-4-one], the Emax at 30 µM turned out to be 79% and the EC50 is 60 nM.

In the case of `Cc1c(N2CCc3ncc(-c4cncc(Cl)c4)cc3C2)nn2c(=O)ccnc2c1C` [Compound 1-144, 7-(3-(5-chloropyridin-3-yl)-7,8-dihydro-1,6-naphthyridin-6(5H)-yl)-8,9-dimethyl-4H-pyrimido[1,2-b]pyridazin-4-one], the Emax at 30 µM is 82% and the EC50 was 246 nM.

For `Cc1cc2nccc(=O)n2nc1N1CCc2ncc(-c3cccc(C)c3C)cc2C1` [Compound 1-442, 7-(3-(2,3-dimethylphenyl)-7,8-dihydro-1,6-naphthyridin-6(5H)-yl)-8-methyl-4H-pyrimido [1,2-b]pyridazin-4-one], the Emax at 30 µM is 86% and the 50% effective concentration (EC50) stood at 411 nM.

Consider `Cc1cc2nccc(=O)n2nc1N1CCc2ncc(Nc3cncc(Cl)c3)cc2C1` [Compound 2-142, 7-(3-((5-chloropyridin-3-yl)amino)-7,8-dihydro-1,6-naphthyridin-6(5H)-yl)-8-methyl-4H-pyrimido[1,2-b]pyridazin-4-one], for which the Emax at 30 µM worked out at 66% and the EC50 worked out at 182 nM.

`COCc1c(N2CCc3ncc(C(F)(F)F)cc3C2)nn2c(=O)ccnc2c1C` [Compound 1-270, 8-(methoxymethyl)-9-methyl-7-(3-(trifluoromethyl)-7,8-dihydro-1,6-naphthyridin-6(5H)-yl)-4H-pyrimido[1,2-b]pyridazin-4-one]: the Emax at 30 µM is 95% and the EC50 is 33 nM.

On to `Cc1c(N2CCc3ncc(N4CCO[C@H](C)C4)cc3C2)nn2c(=O)ccnc2c1C` [Compound 2-32, (R)-8,9-dimethyl-7-(3-(2-methylmorpholino)-7,8-dihydro-1,6-naphthyridin-6(5H)-yl)-4H-pyrimido[1,2-b]pyridazin-4-one], for which the Emax at 30 µM was found to be 94% and the EC50 is 84 nM.

As to `Cc1cc(=O)n2nc(N3CCc4ncc(-c5cn6ccnc6cc5C)cc4C3)c(C)cc2n1` [Compound 1-217, 2,8-dimethyl-7-(3-(7-methylimidazo[1,2-a]pyridin-6-yl)-7,8-dihydro-1,6-naphthyridin-6(5H)-yl)-4H-pyrimido[1,2-b]pyridazin-4-one], the Emax at 30 µM came to 60% and the EC50 worked out at 655 nM.

In the case of `Cc1c(N2CCc3ncc(-c4ccc(C(F)(F)F)nc4)cc3C2)nn2c(=O)cc(C(F)F)nc2c1C` [Compound 1-93, 2-(difluoromethyl)-8,9-dimethyl-7-(3-(6-(trifluoromethyl)pyridin-3-yl)-7,8-dihydro-1,6-naphthyridin-6(5H)-yl)-4H-pyrimido[1,2-b]pyridazin-4-one], the Emax at 30 µM turned out to be 90% and the EC50 is 333 nM.

Regarding `Cc1c(N2CCc3ncc(-c4ccc(C5CC5)nc4)cc3C2)nn2c(=O)cc(C(F)F)nc2c1C` [Compound 1-94, 7-(3-(6-cyclopropylpyridin-3-yl)-7,8-dihydro-1,6-naphthyridin-6(5H)-yl)-2-(difluoromethyl)-8,9-dimethyl-4H-pyrimido[1,2-b]pyridazin-4-one], the Emax at 30 µM turned out to be 79% and the EC50 was 122 nM.
